The target in one test is T1, MEK5 (Homo sapiens, UniProt Q13163).
T1 sequence (Q13163 1-448): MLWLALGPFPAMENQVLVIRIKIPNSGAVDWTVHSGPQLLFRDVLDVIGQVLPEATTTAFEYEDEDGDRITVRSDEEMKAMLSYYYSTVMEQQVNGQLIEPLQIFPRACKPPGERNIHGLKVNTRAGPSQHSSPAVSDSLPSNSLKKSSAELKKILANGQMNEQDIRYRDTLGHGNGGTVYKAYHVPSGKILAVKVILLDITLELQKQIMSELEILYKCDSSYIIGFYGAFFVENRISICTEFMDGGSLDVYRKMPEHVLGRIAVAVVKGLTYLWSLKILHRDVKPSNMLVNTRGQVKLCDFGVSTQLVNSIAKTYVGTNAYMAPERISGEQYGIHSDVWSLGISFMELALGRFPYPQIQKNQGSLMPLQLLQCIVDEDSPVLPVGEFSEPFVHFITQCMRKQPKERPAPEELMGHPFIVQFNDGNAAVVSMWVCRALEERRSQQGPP
The test can be described thus: biochemical. The settings on record: read-out: % enzyme activity, 1 μM; Run 1, Run 2.

In another test the target is T2, TAOK2/TAO1 (Homo sapiens, UniProt Q9UL54).
T2 sequence (Q9UL54 1-1235): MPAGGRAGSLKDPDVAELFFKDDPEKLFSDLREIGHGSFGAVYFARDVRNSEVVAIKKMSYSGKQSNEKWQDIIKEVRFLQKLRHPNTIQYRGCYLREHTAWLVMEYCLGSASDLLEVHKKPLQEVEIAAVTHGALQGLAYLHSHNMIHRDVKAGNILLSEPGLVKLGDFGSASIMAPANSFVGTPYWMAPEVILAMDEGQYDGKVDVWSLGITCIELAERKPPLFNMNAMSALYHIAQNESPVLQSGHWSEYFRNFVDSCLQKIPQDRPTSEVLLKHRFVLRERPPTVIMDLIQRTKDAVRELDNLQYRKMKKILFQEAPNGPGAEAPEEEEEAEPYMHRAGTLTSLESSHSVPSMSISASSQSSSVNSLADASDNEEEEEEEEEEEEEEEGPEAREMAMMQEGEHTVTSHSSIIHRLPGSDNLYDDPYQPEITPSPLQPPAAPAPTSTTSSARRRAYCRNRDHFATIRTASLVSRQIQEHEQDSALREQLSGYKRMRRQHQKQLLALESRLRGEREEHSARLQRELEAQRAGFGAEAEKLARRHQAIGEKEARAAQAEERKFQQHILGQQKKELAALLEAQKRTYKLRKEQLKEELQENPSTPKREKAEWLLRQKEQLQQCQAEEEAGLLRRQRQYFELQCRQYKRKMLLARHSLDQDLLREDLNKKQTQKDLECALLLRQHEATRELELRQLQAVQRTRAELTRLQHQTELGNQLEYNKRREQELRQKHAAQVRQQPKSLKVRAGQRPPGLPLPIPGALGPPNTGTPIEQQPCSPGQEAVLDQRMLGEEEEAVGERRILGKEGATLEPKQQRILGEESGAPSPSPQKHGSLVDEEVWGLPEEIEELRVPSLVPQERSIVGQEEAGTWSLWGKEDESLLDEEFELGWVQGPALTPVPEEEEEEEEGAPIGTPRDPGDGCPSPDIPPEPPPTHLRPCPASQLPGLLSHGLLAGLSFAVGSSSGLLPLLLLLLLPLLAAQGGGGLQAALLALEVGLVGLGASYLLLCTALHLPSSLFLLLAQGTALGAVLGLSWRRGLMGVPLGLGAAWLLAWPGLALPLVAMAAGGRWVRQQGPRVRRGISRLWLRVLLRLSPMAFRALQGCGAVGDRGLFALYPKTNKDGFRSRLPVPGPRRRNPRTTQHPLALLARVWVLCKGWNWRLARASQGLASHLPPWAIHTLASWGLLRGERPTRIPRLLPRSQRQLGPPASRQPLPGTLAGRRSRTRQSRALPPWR
The conditions noted are these: 1 μM; Run 1, Run 2.

Another test concerns the target T3, ULK1 (Homo sapiens, UniProt O75385).
T3 sequence (O75385 1-1050): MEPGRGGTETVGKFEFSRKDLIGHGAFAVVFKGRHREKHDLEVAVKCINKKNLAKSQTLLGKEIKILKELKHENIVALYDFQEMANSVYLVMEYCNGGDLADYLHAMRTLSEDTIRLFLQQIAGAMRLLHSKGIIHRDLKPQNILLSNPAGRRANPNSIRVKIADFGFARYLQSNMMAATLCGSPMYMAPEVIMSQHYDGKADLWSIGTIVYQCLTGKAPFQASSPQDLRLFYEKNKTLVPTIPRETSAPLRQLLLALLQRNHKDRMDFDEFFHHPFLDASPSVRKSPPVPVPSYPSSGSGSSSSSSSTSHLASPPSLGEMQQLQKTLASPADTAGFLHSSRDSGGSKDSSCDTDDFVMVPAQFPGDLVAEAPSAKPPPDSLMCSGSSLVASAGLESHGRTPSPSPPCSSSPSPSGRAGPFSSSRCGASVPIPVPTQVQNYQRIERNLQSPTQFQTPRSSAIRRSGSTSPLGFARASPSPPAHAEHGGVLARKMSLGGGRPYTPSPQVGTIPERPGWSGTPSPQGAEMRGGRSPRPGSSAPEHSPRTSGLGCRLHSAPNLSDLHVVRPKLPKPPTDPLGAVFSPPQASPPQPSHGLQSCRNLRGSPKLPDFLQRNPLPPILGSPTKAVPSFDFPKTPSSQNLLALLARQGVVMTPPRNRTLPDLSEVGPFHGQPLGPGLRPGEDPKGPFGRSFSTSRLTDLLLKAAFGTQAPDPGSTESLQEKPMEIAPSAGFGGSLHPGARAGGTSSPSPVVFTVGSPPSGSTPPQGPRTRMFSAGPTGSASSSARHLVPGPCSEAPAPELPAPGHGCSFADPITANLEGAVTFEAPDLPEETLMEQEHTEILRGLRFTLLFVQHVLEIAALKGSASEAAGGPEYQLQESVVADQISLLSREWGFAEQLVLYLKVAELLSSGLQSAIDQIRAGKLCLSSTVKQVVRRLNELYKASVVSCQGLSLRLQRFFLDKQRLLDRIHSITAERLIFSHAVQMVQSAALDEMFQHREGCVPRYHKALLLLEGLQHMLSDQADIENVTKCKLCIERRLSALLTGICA
The conditions noted are these: 1 μM; Run 1, Run 2.

The next test addresses LOK/STK10 (Homo sapiens, UniProt O94804). The test can be described thus: biochemical. The settings on record: read-out: % enzyme activity, 1 μM; Run 1, Run 2.

This is an account of results in PMC8213057, “Targeting ALK2: An Open Science Approach to Developing Therapeutics for the Treatment of Diffuse Intrinsic Pontine Glioma” (Journal of Medicinal Chemistry, 2020).

Bounds are passed on as bounds.

Chain of LOK/STK10 (O94804 whole entry): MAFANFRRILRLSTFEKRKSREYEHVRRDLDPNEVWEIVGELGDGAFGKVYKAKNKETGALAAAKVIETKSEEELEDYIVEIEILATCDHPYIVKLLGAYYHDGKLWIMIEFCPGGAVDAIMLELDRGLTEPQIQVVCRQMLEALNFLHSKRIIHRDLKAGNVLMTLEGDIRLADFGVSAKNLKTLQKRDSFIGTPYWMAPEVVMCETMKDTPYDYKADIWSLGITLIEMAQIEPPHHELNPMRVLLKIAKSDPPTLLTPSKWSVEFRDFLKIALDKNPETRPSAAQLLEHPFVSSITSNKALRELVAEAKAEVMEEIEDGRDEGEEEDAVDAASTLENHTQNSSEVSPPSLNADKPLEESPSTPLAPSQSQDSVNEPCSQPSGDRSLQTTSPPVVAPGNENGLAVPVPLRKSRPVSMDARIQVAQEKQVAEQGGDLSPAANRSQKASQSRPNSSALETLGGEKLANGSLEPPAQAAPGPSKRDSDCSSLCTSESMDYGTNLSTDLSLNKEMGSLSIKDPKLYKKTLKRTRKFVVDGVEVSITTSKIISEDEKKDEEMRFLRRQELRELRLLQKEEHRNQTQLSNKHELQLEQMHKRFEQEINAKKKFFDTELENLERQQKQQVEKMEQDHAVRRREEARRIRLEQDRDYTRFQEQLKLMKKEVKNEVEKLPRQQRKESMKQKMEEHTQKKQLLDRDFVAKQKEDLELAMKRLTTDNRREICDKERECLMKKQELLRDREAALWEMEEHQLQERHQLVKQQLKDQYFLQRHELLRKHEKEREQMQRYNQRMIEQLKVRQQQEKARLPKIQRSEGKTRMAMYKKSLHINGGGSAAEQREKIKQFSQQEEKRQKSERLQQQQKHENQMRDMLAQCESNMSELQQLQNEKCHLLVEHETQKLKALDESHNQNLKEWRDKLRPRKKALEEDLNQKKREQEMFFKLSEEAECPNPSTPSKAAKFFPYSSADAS

`COc1cc(-c2cncc(-c3ccc(N4CCN(C)CC4)cc3)c2C)cc(F)c1C(N)=O` [Compound 26a, 2-Fluoro-6-methoxy-4-(4-methyl-5-(4-(4-methylpiperazin-1-yl)phenyl)pyridin-3-yl)benzamide] registered a CYP inhibition on CYP2C8 of over 50 µM. Further, the remaining activity at 1 µM on MEK5 was found to be 86.9%; at LOK/STK10, 51.8%. Moreover, the “% enzyme activity” value at TAOK2/TAO1 is reported as 87.58%; at ULK1 it was 83.53%.

On CYP2C8, `COc1cc(-c2cncc(-c3ccc(N4C[C@@H](C)N(C)[C@@H](C)C4)cc3)c2C)cc(F)c1C(N)=O` [Compound 26c, 2-Fluoro-6-methoxy-4-(4-methyl-5-(4-((3R,5S)-3,4,5-trimethylpiperazin-1-yl)phenyl)pyridin-3-yl)benzamide] had a CYP inhibition of over 50 µM. Moreover, the remaining activity at 1 µM is 93.2% at MEK5 and 68.7% at LOK/STK10. The “% enzyme activity” value on TAOK2/TAO1 is 99.37%; on ULK1, 89.24%.
